The values below come from patent US10882852B1, “3-vinylquinolines as cancer cells inhibitors” (King Abdulaziz University, priority 2020, dated 2021).

Where “and” joins values, the source holds several entries; their conditions need not be identical. Equal entries are not always repeated. Where two headings read alike, the source gives them in different places.

One data set deals with HL-60 leukemia cells. In words: MTT cell viability assay, HL-60. In kind it is cell-based, human. Particulars: Homo sapiens. Here is the method: (§1) All the human tumour cell lines MCF-7, HCT-116, HL-60 and HeLa were cultured in Dulbecco's Modified Eagle's Medium (DMEM) with 10% fetal bovine serum, 2 mM L-glutamine and 100 µg/mL penicillin/streptomycin. Cells were maintained at 37° C. in 5% CO2 in a humidified incubator. All cells were sub-cultured 3 times/week by trypsinization using TrypLE Express (1×).
(§2) The quinoline compounds were evaluated for antiproliferative effect using the MTT viability assay of four cancer cell lines (MCF-7, HCT-116, HL-60 and HeLa) and normal breast cells MCF-10A to calculate the relative IC50 values for each compound. Cells were seeded in triplicate in 96-well plates at a density of 10×10^3 cells/ml in a total volume of 200 μl per well. 0.1% of DMSO was used as a vehicle control. After this time, they were treated with 2 μl test compound which had been pre-prepared as stock solutions in ethanol to furnish the concentration range of study, 1 nM to 50 μM, and re-incubated for a further 72 h. The culture medium was then removed, and the cells washed with 100 μL phosphate buffered saline (PBS) and 50 μL MTT added, to reach a final concentration of 1 mg/mL MTT added. Cells were incubated for 2 h in darkness at 37° C. At this point solubilisation was begun through the addition of […] DMSO and the cells maintained at room temperature in darkness for 20 min to ensure thorough colour diffusion before reading the absorbance. Plates were incubated for 72 hours at 37° C.+5% CO2, The MTT (5 mg/mL in PBS) was added and incubated for another 4 h, the optical density was detected with a microplate reader at 570 nm. Results were expressed as percentage viability relative to vehicle control (100%). Dose response curves were plotted and IC50 values (concentration of drug resulting in 50% reduction in cell survival) were obtained using the commercial software package Prism (GraphPad Software, Inc., La Jolla, Calif., USA). All the experiments were repeated in at least three independent experiments.

The test system of data set [1] is MCF-7 breast cancer cells. Kind of data set: MTT cell viability assay, MCF-7. In kind it is cell-based, human. Particulars: Homo sapiens, MCF7, MCF-7, MTT. Here is the method:
as §1, §2

The next data set has as its system bovine brain tubulin. Kind of data set: Tubulin polymerization assay. In kind it is biochemical. Particulars: for IC50: inhibition of tubulin polymerization, tubulin at 10 μM, read-out: Tubulin assembly IC50 ± SD; for fold less active than CA-4 in tubulin assembly: versus CA-4. Here is the method: The assembly of purified bovine tubulin was monitored using a kit, BK006, purchased from Cytoskeleton Inc., (Denver, Colo., USA). The assay was carried out in accordance with the manufacturer's instructions using the standard assay conditions. […] Light is scattered proportionally to the concentration of polymerized microtubules in the assay. Therefore, tubulin assembly was monitored turbidimetrically at 340 nm in a Spectramax 340 PC spectrophotometer (Molecular Devices, Sunnyvale, Calif., USA). The concentration that inhibits tubulin polymerization by 50% (IC50) was determined using area under the curve (AUC). The AUC of the untreated controls were considered as 100% polymerization. The IC50 value for each compound was computed using GraphPad Prism Software.

For data set [2], the system named is HCT-116 colon cancer cells. Kind of data set: MTT cell viability assay, HCT-116. In kind it is cell-based, human. As to conditions: Homo sapiens, HCT-116, MTT. On the procedure: as §1, §2
Data set [3] relates to HeLa cervical cancer cells. In words: MTT cell viability assay, HeLa. In kind it is cell-based, human. As to conditions: Homo sapiens. On the procedure:
as §1, §2

Data set [4] deals with MCF-7, HL-60, HCT-116 and HeLa cancer cells. In words: MTT antiproliferative activity over the panel of four cancer cell lines. In kind it is cell-based, human. Particulars: for antiproliferative activity (in words): four cancer cell lines, MTT. On the procedure: as §1, §2
[5] abbreviates: HL-60, 72 h, HL-60, MTT, 72 h, mean ± spread of three experiments, read-out: IC50 value (μM) HL-60.

The compound `COc1ccc2nc(OC)c(C=C3N=C(c4cc(OC)c(OC)c(OC)c4)NC3=O)cc2c1` [Compound 9e, 5-[(2,6-Dimethoxyquinolin-3-yl)methylene]-2-(3,4,5-trimethoxyphenyl)-3,5-dihydro-4H-imidazol-4-one] displayed a melting point of 253 to 255 °C. Moreover, the IC50 in the data set with HL-60 leukemia cells (setting [5]) came to 0.272 ± 0.05 µM. In data set [1] (read-out: IC50 in MCF-7), the IC50 amounted to 42.9 nM. In addition, in the data set with bovine brain tubulin, the IC50 was 1.4 µM and 1.48 µM. In addition, in data set [2] (72 h, read-out: IC50 value (μM) HCT-116), the IC50 came to 0.085 ± 0.003 µM. In data set [3] (read-out: IC50 in HeLa), the IC50 stood at 62.3 nM.
`COc1cc(C2=NC(=Cc3cc4cccc(C)c4nc3OC)C(=O)N2)cc(OC)c1OC` [Compound 9d, 5-[(2-Methoxy-8-methylquinolin-3-yl)methylene]-2-(3,4,5-trimethoxyphenyl)-3,5-dihydro-4H-imidazol-4-one] yielded a melting point of 233 to 235 °C. The “antiproliferative activity (in words)” value in data set [4] is “potent activity in submicromolar range”.
For the compound `COc1cc(C2=NC(=Cc3cc4ccc(C)cc4nc3OC)C(=O)N2)cc(OC)c1OC` [Compound 9c, 5-[(2-Methoxy-7-methylquinolin-3-yl)methylene]-2-(3,4,5-trimethoxyphenyl)-3,5-dihydro-4H-imidazol-4-one], the melting point lay within 236 to 238 °C. Further, the IC50 in data set [4] (Homo sapiens, panel of HL-60, MCF-7, HCT-116, HeLa, read-out: IC50 values across the four cancer cell lines) lay in the range of 22.3 to 73.3 µM. Also, the “antiproliferative activity (in words)” value in data set [4] is “potent activity in submicromolar range”. In addition, the IC50 with bovine brain tubulin is 20.2 µM and 20.3 µM. The “fold less active than 8c in tubulin polymerization” value in the data set on bovine brain tubulin (versus oxazolone derivative 8c) came out at 16 fold.
`COc1cc(C2=NC(=Cc3cc4cc(C)ccc4nc3OC)C(=O)O2)cc(OC)c1OC` [Compound 8b, 4-[(2-Methoxy-6-methylquinolin-3-yl)methylene]-2-(3,4,5-trimethoxyphenyl)oxazol-5(4H)-one] yielded a melting point of 218 to 220 °C.
On to `COc1cc(C2=NC(=Cc3cc4ccccc4nc3OC)C(=O)O2)cc(OC)c1OC` [Compound 8a, 4-[(2-Methoxyquinolin-3-yl)methylene]-2-(3,4,5-trimethoxyphenyl)oxazol-5(4H)-one], for which the melting point was 215 to 217 °C. Moreover, in the data set with bovine brain tubulin, the IC50 is 13.9 µM and 14 µM; the “fold less active than CA-4 in tubulin assembly” value was 4 fold.
Compound `COc1cc(C2=NC(=Cc3cc4ccc(OCc5ccccc5)cc4nc3OC)C(=O)O2)cc(OC)c1OC` [Compound 8h, 4-[(7-(Benzyloxy)-2-methoxyquinolin-3-yl)methylene]-2-(3,4,5-trimethoxyphenyl)oxazol-5(4H)-one] showed a melting point of 247 to 249 °C.
Compound `COc1cc(C2=NC(=Cc3cc4cccc(C)c4nc3OC)C(=O)O2)cc(OC)c1OC` [Compound 8d, 4-[(2-Methoxy-8-methylquinolin-3-yl)methylene]-2-(3,4,5-trimethoxyphenyl)oxazol-5(4H)-one] yielded a melting point of 236 to 238 °C.
`COc1ccc2nc(OC)c(/C=C3\N=C(c4cc(OC)c(OC)c(OC)c4)OC3=O)cc2c1` [Compound 8e]: the melting point lay in the range of 242 to 244 °C. Moreover, the IC50 with HL-60 leukemia cells (HL-60, HL-60, MTT, read-out: IC50 in HL-60 (unit inferred)) was 0.0685 µM. The IC50 in data set [1] (read-out: IC50 in MCF-7 (unit inferred)) was found to be 56.8 nM. In addition, the IC50 with bovine brain tubulin is 2.2 µM and 2.26 µM. For the same compound, the IC50 in data set [2] (read-out: IC50 in HCT-116 (unit inferred)) came to 0.0318 µM. Besides, in data set [3] (read-out: IC50 in HeLa (unit inferred)), the IC50 was determined as 10.1 nM.
Take `COc1cc(C2=NC(=Cc3cc4ccccc4nc3OC)C(=O)N2)cc(OC)c1OC` [Compound 9a, 5-[(2-Methoxyquinolin-3-yl)methylene]-2-(3,4,5-trimethoxyphenyl)-3,5-dihydro-4H-imidazol-4-one]: the melting point is 230 to 232 °C.
`COc1cc(C2=NC(=Cc3cc4ccc(OCc5ccccc5)cc4nc3OC)C(=O)N2)cc(OC)c1OC` [Compound 9h, 5-[(7-(Benzyloxy)-2-methoxyquinolin-3-yl)methylene]-2-(3,4,5-trimethoxyphenyl)-3,5-dihydro-4H-imidazol-4-one] gave a melting point of 259 to 261 °C. In addition, the IC50 in the data set on HL-60 leukemia cells (setting [5]) is 4.93 ± 0.26 µM.
As for `COc1ccc2cc(C=C3N=C(c4cc(OC)c(OC)c(OC)c4)OC3=O)c(OC)nc2c1` [Compound 8f, 4-[(2,7-Dimethoxyquinolin-3-yl)methylene]-2-(3,4,5-trimethoxyphenyl)oxazol-5(4H)-one], the melting point was in the range of 221 to 223 °C.
With `COc1cc(C2=NC(=Cc3cc4cc(C)ccc4nc3OC)C(=O)N2)cc(OC)c1OC` [Compound 9b, 5-[(2-Methoxy-6-methylquinolin-3-yl)methylene]-2-(3,4,5-trimethoxyphenyl)-3,5-dihydro-4H-imidazol-4-one], the melting point lay in the range of 223 to 225 °C. For the same compound, in data set [4], the “antiproliferative activity (in words)” value is “potent activity in submicromolar range”.
`COc1ccc2cc(C=C3N=C(c4cc(OC)c(OC)c(OC)c4)NC3=O)c(OC)nc2c1` [Compound 9f, 5-[(2,7-Dimethoxyquinolin-3-yl)methylene]-2-(3,4,5-trimethoxyphenyl)-3,5-dihydro-4H-imidazol-4-one] came in with a melting point of 241 to 243 °C. In addition, in data set [1] (read-out: IC50 in MCF-7), the IC50 is 92.7 nM. Also, the IC50 in data set [2] (read-out: IC50 in HCT-116) was 0.188 µM. The IC50 in data set [3] (read-out: IC50 in HeLa) stood at 101 nM.
In the case of `COc1cc(C2=NC(=Cc3cc4ccc(OC(C)C)cc4nc3OC)C(=O)O2)cc(OC)c1OC` [Compound 8g, 4-[(7-Isopropoxy-2-methoxyquinolin-3-yl)methylene]-2-(3,4,5-trimethoxyphenyl)oxazol-5(4H)-one], the melting point is 227 to 229 °C. For the same compound, in the data set with bovine brain tubulin, the IC50 is 8.23 µM and the “fold less active than CA-4 in tubulin assembly” value is recorded as 6 fold.
In turn, `COc1cc(C2=NC(=Cc3cc4ccc(OC(C)C)cc4nc3OC)C(=O)N2)cc(OC)c1OC` [Compound 9g, 5-((7-Isopropoxy-2-methoxyquinolin-3-yl)methylene)-2-(3,4,5-trimethoxyphenyl)-3,5-dihydro-4H-imidazol-4-one] returned a melting point of 238 to 240 °C.
